One assay has as its system U-937. In words: Cytotoxicity against human U-937 cells assessed as reduction in cell viability at 3 uM incubated for 24 hrs by MTT assay relative to control. Type of assay: functional.
Assay [1] addresses Histone deacetylase 1 (Homo sapiens) (UniProt Q13547). In words: Inhibition of HDAC1 (unknown origin) at 10 uM relative to control.
The target in another assay is Histone deacetylase 3 (Homo sapiens, UniProt O15379). In words: Inhibition of human recombinant HDAC3 using Boc-Lys(Ac)-AMC fluorogenic substrate measured after 60 mins by fluorescence assay.

The structures appear in SMILES notation.

Chain of Histone deacetylase 3 (O15379 whole entry): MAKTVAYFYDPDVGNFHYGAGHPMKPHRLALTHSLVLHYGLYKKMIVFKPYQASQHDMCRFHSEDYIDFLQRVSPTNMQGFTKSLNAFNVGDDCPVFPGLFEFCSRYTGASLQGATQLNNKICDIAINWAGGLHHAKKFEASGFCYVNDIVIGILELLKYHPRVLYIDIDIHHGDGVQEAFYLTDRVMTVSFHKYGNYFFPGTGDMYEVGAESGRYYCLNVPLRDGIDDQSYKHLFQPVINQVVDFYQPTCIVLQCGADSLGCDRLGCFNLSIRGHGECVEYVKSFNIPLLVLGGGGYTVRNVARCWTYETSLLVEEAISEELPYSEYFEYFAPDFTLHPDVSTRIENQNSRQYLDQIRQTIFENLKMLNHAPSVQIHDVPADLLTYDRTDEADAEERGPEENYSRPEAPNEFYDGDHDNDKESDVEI
Chain of Histone deacetylase 1 (Homo sapiens) (Q13547 whole entry): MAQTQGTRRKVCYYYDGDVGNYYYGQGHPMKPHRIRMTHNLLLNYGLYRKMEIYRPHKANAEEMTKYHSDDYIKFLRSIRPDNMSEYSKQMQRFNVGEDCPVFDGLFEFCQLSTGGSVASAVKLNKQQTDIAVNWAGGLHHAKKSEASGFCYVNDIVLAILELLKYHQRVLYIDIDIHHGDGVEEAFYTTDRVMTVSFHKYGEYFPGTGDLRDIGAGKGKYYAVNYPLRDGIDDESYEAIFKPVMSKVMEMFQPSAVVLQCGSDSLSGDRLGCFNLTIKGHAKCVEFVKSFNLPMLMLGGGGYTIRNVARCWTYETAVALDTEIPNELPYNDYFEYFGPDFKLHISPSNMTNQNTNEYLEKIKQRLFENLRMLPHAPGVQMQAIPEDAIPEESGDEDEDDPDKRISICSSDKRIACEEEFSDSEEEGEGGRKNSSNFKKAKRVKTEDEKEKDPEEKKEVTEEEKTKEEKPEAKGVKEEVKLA

On to `Cc1sc2c(c1C)C(c1ccc(Cl)cc1)=N[C@@H](CC(=O)NCCCC(=O)Nc1ccccc1N)c1nnc(C)n1-2`, for which the Activity with U-937 was determined as 16.12%. In assay [1], `Cc1noc(C)c1-c1cnc2c(c1)c(Cc1ccc(F)cc1)cn2CCCCCCC(=O)NO` displayed an inhibition of 88%. Further, the IC50 at Histone deacetylase 3 was found to be 5 nM. As to `O=C(CCCCCCn1cc(Cc2ccccc2)c2cccnc21)NO`, at Histone deacetylase 3, the IC50 was 60 nM. On the same count and under the same terms, to `COC(c1c(F)cccc1Cl)c1c[nH]c2ncc(-c3c(C)noc3C)cc12` (stereo not given) belongs 5 nM.
